Common to all, as to type: functional
The test system of test [1] is Staphylococcus aureus. Nature of the test: Antimicrobial activity against methicillin-resistant Staphylococcus aureus ATCC 43300 after overnight incubation.
Test [2] concerns Enterococcus faecium. Nature of the test: Antimicrobial activity against vancomycin-resistant Enterococcus faecium 449 after overnight incubation.
The test system of test [3] is Enterococcus faecium. Nature of the test: Antimicrobial activity against vancomycin-resistant Enterococcus faecium 243 after overnight incubation.
For test [4], the system named is Enterococcus faecium. Nature of the test: Antimicrobial activity against vancomycin-resistant Enterococcus faecium 987 after overnight incubation.
Test [5] has as its system Enterococcus faecium. Kind of test: Antimicrobial activity against vancomycin-resistant Enterococcus faecium 820 after overnight incubation.

Values after ≈ are worked out from the molar mass of the structure shown.

Experimental findings from ChEMBL document CHEMBL1177642, “Synthesis and antibacterial studies of binaphthyl-based tripeptoids. Part 2” (2010) are described below.

For orientation: MIC50 means an inhibitory concentration at the 50% level, which refers to growth in some studies and to a panel of isolates in others. Higher therefore signals weaker potency.

For `C=CCOc1ccc2ccccc2c1-c1c(OCC(=O)N[C@H](CCCCN)C(=O)N[C@H](CCCNC(=N)N)C(=O)N[C@@H](CC=C)C(=O)OCc2ccccc2)ccc2ccccc12.Cl.Cl`, the MIC50 in test [1] is 1.96 µg/mL; in test [2], 31.3 µg/mL; in test [3] it was 31.3 µg/mL; in test [4], 31.3 µg/mL; in test [5], 31.3 µg/mL.
Regarding `C=CC[C@H](NC(=O)[C@@H](CCCNC(=N)N)NC(=O)[C@@H](CCCCN)NC(=O)COc1ccc2ccccc2c1-c1c(OCc2ccccc2)ccc2ccccc12)C(=O)OCc1ccccc1.Cl.Cl`, the MIC50 was 3.9 µg/mL in test [1]; 62.5 µg/mL in test [2]; 62.5 µg/mL in test [3]; 125 µg/mL in test [4]; 62.5 µg/mL in test [5].
With `C=CC[C@H](NC(=O)[C@@H](CCCNC(=N)N)NC(=O)[C@@H](CCCCN)NC(=O)COc1ccc2ccccc2c1-c1c(OC)ccc2ccccc12)C(=O)OCc1ccccc1.Cl.Cl`, the MIC50 in test [1] was found to be 7.8 µg/mL; in test [2] it was 62.5 µg/mL; in test [3] it was 125 µg/mL; in test [4] it was 125 µg/mL; in test [5], 62.5 µg/mL.
In the case of `C=CC[C@H](NC(=O)[C@@H](CCCNC(=N)N)NC(=O)[C@@H](CCCCN)NC(=O)COc1ccc2ccccc2c1-c1c(OCCCCC)ccc2ccccc12)C(=O)OCc1ccccc1.Cl.Cl`, the MIC50 in test [1] was 3.9 µg/mL; in test [2] it was 62.5 µg/mL; in test [3] it was 62.5 µg/mL; in test [4], 62.5 µg/mL; in test [5], 31.3 µg/mL.
As for `C=CC[C@H](NC(=O)[C@@H](CCCNC(=N)N)NC(=O)[C@@H](CCCCN)NC(=O)COc1ccc2ccccc2c1-c1c(OCC(C)C)ccc2ccccc12)C(=O)OCc1ccccc1.Cl.Cl`, the MIC50 is 1.95 µg/mL in test [1]; 52.1 µg/mL in test [2]; 62.5 µg/mL in test [3]; 62.5 µg/mL in test [4]; 31.3 µg/mL in test [5].
In the case of `C=CC[C@H](NC(=O)[C@@H](CCCNC(=N)N)NC(=O)[C@@H](CCCCN)NC(=O)COc1ccc2ccccc2c1-c1c(OCC(C)(C)C)ccc2ccccc12)C(=O)OCc1ccccc1.Cl.Cl`, the MIC50 in test [1] amounted to 3.9 µg/mL; in test [2], 62.5 µg/mL; in test [3], 62.5 µg/mL; in test [4], 83.3 µg/mL; in test [5], 31.3 µg/mL.
On to `C=CC[C@H](NC(=O)[C@@H](CCCNC(=N)N)NC(=O)[C@@H](CCCCN)NC(=O)COc1ccc2ccccc2c1-c1c(OCC2CCCCC2)ccc2ccccc12)C(=O)OCc1ccccc1.Cl.Cl`, for which the MIC50 in test [1] is 3.9 µg/mL; in test [2] it was 62.5 µg/mL; in test [3] it was 62.5 µg/mL; in test [4] it was 62.5 µg/mL; in test [5] it was 31.3 µg/mL.
In the case of `C[C@H](NC(=O)[C@@H](CCCNC(=N)N)NC(=O)[C@@H](CCCCN)NC(=O)COc1ccc2ccccc2c1-c1c(O)ccc2ccccc12)C(=O)OCc1ccccc1.Cl.Cl`, the MIC50 in test [1] came out at 7.8 µg/mL; in test [2] it was 52.1 µg/mL; in test [3], 125 µg/mL; in test [4], 125 µg/mL; in test [5] it was 62.5 µg/mL.
In the case of `C=CC[C@H](NC(=O)[C@@H](CCCNC(=N)N)NC(=O)[C@@H](CCCCN)NC(=O)COc1ccc2ccccc2c1-c1c(OCCCc2ccccc2)ccc2ccccc12)C(=O)OCc1ccccc1.Cl.Cl`, the MIC50 in test [1] came out at 3.9 µg/mL; in test [2], 31.3 µg/mL; in test [3], 62.5 µg/mL; in test [4], 62.5 µg/mL; in test [5] it was 31.3 µg/mL.
For `CCCCCCCCOc1ccc2ccccc2c1-c1c(OCC(=O)N[C@H](CCCCN)C(=O)N[C@H](CCCNC(=N)N)C(=O)N[C@@H](CC(C)C)C(=O)OCc2ccccc2)ccc2ccccc12.Cl.Cl`, the MIC50 in test [1] amounted to 13 µg/mL; in test [2], 125 µg/mL; in test [3] it was 125 µg/mL; in test [4], 125 µg/mL; in test [5] it was 62.5 µg/mL.
For the compound `CC(C)CCOc1ccc2ccccc2c1-c1c(OCC(=O)N[C@H](CCCCN)C(=O)N[C@H](CCCNC(=N)N)C(=O)N[C@@H](CC(C)C)C(=O)Oc2ccccc2)ccc2ccccc12.Cl.Cl`, the MIC50 in test [1] was 3.9 µg/mL; in test [2], 15.6 µg/mL; in test [3], 15.6 µg/mL; in test [4], 15.6 µg/mL; in test [5], 7.8 µg/mL.
As to `CC(C)CCOc1ccccc1-c1ccccc1OCC(=O)N[C@H](CCCCN)C(=O)N[C@H](CCCNC(=N)N)C(=O)N[C@@H](CC(C)C)C(=O)OCc1ccccc1.Cl.Cl`, the MIC50 in test [1] was 1.95 µg/mL; in test [2], 31.3 µg/mL; in test [3], 31.3 µg/mL; in test [4], 31.3 µg/mL; in test [5], 31.3 µg/mL.
For the compound `C=CCOc1ccc2ccccc2c1-c1c(OCC(=O)OCC)ccc2ccccc12`, the MIC50 in test [1] was determined as 3.9 µg/mL (≈ 9.45 µM); in test [2], 31.3 µg/mL (≈ 75.9 µM); in test [3] it was 31.3 µg/mL (≈ 75.9 µM); in test [4] it was 62.5 µg/mL (≈ 152 µM); in test [5], 31.3 µg/mL (≈ 75.9 µM).
On to `C=CC[C@H](NC(=O)[C@@H](CCCNC(=N)N)NC(=O)[C@@H](CCCCN)NC(=O)COc1ccc2ccccc2c1-c1c(OCC2CCC2)ccc2ccccc12)C(=O)OCc1ccccc1.Cl.Cl`, for which the MIC50 in test [1] was 3.9 µg/mL; in test [2] it was 52.1 µg/mL; in test [3] it was 62.5 µg/mL; in test [4], 62.5 µg/mL; in test [5], 31.3 µg/mL.
Regarding `CC(C)C[C@H](NC(=O)[C@@H](CCCNC(=N)N)NC(=O)[C@@H](CCCCN)NC(=O)COc1ccc2ccccc2c1-c1c(OCC#N)ccc2ccccc12)C(=O)OCc1ccccc1.Cl.Cl`, the MIC50 turned out to be 3.9 µg/mL in test [1]; 31.3 µg/mL in test [2]; 62.5 µg/mL in test [3]; 62.5 µg/mL in test [4]; 31.3 µg/mL in test [5].
With `CC(C)C[C@H](NC(=O)[C@@H](CCCNC(=N)N)NC(=O)[C@@H](CCCCN)NC(=O)COc1ccc2ccccc2c1-c1c(OCCC2CC2)ccc2ccccc12)C(=O)OCc1ccccc1.Cl.Cl`, the MIC50 in test [1] was found to be 3.9 µg/mL; in test [2], 31.3 µg/mL; in test [3], 125 µg/mL; in test [4] it was 62.5 µg/mL; in test [5], 62.5 µg/mL.
As for `CC(C)C[C@H](NC(=O)[C@@H](CCCNC(=N)N)NC(=O)[C@@H](CCCCN)NC(=O)COc1ccc2ccccc2c1-c1c(OCCc2ccccc2)ccc2ccccc12)C(=O)OCc1ccccc1.Cl.Cl`, the MIC50 was 5.2 µg/mL in test [1]; 31.3 µg/mL in test [2]; 31.3 µg/mL in test [3]; 31.3 µg/mL in test [4]; 15.6 µg/mL in test [5].
For the compound `COCCOc1ccc2ccccc2c1-c1c(OCC(=O)N[C@H](CCCCN)C(=O)N[C@H](CCCNC(=N)N)C(=O)N[C@@H](CC(C)C)C(=O)OCc2ccccc2)ccc2ccccc12.Cl.Cl`, the MIC50 worked out at 3.9 µg/mL in test [1]; 31.3 µg/mL in test [2]; 125 µg/mL in test [3]; 62.5 µg/mL in test [4]; 62.5 µg/mL in test [5].
Turning to `CN[C@H](CC(C)C)C(=O)N[C@H]1C(=O)N[C@@H](CC(N)=O)C(=O)N[C@H]2C(=O)N[C@H]3C(=O)N[C@H](C(=O)N[C@H](C(=O)O)c4cc(O)cc(O)c4-c4cc3ccc4O)[C@H](O)c3ccc(c(Cl)c3)Oc3cc2cc(c3O[C@@H]2O[C@H](CO)[C@@H](O)[C@H](O)[C@H]2O[C@H]2C[C@](C)(N)[C@H](O)[C@H](C)O2)Oc2ccc(cc2Cl)[C@H]1O` [VANCOMYCIN], the MIC50 in test [1] was 1.95 µg/mL (≈ 1.35 µM); in test [2] it was 62.5 µg/mL (≈ 43.1 µM); in test [3], 1.95 µg/mL (≈ 1.35 µM); in test [4], < 0.98 µg/mL; in test [5], > 125 µg/mL.
